# From US8119691B2, “Method for treating airway hyper-responsiveness with lipoxin analogs” (National Institutes of Health (NIH), priority 2001, dated 2012)
# “Also recorded” adds a separate entry of the source.
# Legend:
# OVA sensitized FVB mice = assay: Allergic airway inflammation, BAL leukocyte differentials, comparison with Montelukast (FIG. 7); type: in vivo, mouse (FVB); design: dose or concentration left out as unconfirmed; conditions: days 14-17, at least 1 h prior to OVA aerosol; BAL day 18
# Text: FIG. 7. Depicts regulation of allergic airway inflammation by 15-epi,16-para-fluoro-phenoxy-LXA4-methyl ester in comparison to a commercially available drug (Montelukast) used to treat chronic asthma.
# Five to seven week old male FVB (Charles River Laboratories, Wilmington, Mass.) mice were housed in isolation cages under viral antibody-free conditions. After Harvard Medical Area IRB approval (Protocol #02570), mice were sensitized with intraperitoneal injections of ovalbumin (OVA) (Grade III; Sigma Chemical Co., St. Louis, Mo.) (10 mg) plus 1 mg aluminum hydroxide (ALUM) (J. T. Baker Chemical Co.; Phillipsburg, N.J.) as adjuvant in 0.2 ml PBS on days 0 and 7. On days 14, 15, 16 and 17, the mice received an analog of LXA4 (15-epi,16-para-fluoro-phenoxy-LXA4-methyl ester) ([…], 21.7 nmoles), montelukast ([…], 21.7 nmoles) or PBS with 1.6 mM CaCl2 and 1.6 mM MgCl2 (0.1 ml) by intravenous injection at least 1 h prior to an aerosol challenge containing either PBS or 6% OVA for 25 min/day. On day 18, 24 h after the last aerosol challenge, bilateral bronchoalveolar lavage (BAL) (2 aliquots of 1 ml PBS plus 0.6 mM EDTA) was performed. BAL fluids were centrifuged (2000 g, 10 min) and cells were resuspended in HBSS, enumerated by hemocytometer, and concentrated onto microscope slides by cytocentrifuge (STATspin) (265 g). […]
# [1] = test system: murine dorsal air pouches; conditions: murine dorsal air pouches (refs. 7, 16); cited from earlier work
# [2] = test system: OVA sensitized and challenged mice; assay: Mediator profile (cytokines, lipid mediators) in BAL fluid by ELISA, OVA sensitized and challenged mice; type: in vivo, mouse (BALB/c); conditions: LXa 10 μg i.v.
# Protocol: FIG. 3. […] Bronchoalveolar lavage fluids were obtained from OVA sensitized and challenged mice. Leukocytes in bronchoalveolar lavage fluid were enumerated and identified after Wright-Giemsa stain (a). Mediator profile of (b) specific cytokines (IL-5, IL-12, IL-13, eotaxin and TNFα), and lipid mediators, including PGE2 (c), LTB4 and cysLT's (d) were determined by ELISA's in materials from control animals and those receiving LXa (10 μg, i.v.). Results are expressed as mean±SEM (n≧6, d≧2). *P<0.05 by Student's t-test compared to control animals.
# Sensitization and challenge protocols. Five to seven week old male BALB/c (Charles River Laboratories, Wilmington, Mass.) or female hCD11b-hALX FvB transgenic mice were housed in isolation cages under viral antibody-free conditions. After Harvard Medical Area IRB approval (Protocol #02570), mice were sensitized with intraperitoneal injections of ovalbumin (OVA) (Grade III; Sigma Chemical Co., St. Louis, Mo.) (10 μg) plus 1 mg aluminum hydroxide (ALUM) (J.T. Baker Chemical Co.; Phillipsburg, N.J.) as adjuvant in 0.2 ml PBS on days 0 and 7. On days 14, 15, 16 and 17, the mice received 10 μg/mouse of an analog (ref. 16) of LXA4 (15-epi,16-para-fluoro-phenoxy-LXA4-methyl ester, LXa) or PBS with 1.6 mM CaCl2 and 1.6 mM MgCl2 (0.1 ml) by intravenous injection at least 1 h prior to an aerosol challenge containing either PBS or 6% OVA for 25 min/day. The analog was designed to resist rapid enzymatic inactivation and was based on the structure of the aspirin-triggered 15-epi-LXA4 (ref. 16), which carries its carbon 15 position alcohol in the R configuration or epimeric (R) to native LXA4. On day 18, 24 h after the last aerosol challenge, airway responsiveness to intravenous methacholine (33-1000 μg/kg) was measured, bilateral bronchoalveolar lavage (BAL) (2 aliquots of 1 ml PBS plus 0.6 mM EDTA) was performed and tissues (whole blood, lungs, mediastinal lymph nodes and spleen) were harvested for histological analysis. Lung resistance (RL) was measured using a sealed constant mass plethysmograph. The effective dose of methacholine required to increase RL to 200% of control values was defined as the ED200 and used as an index of airway responsiveness (as in refs. 14, 15). For mice studied using a whole body plethysmograph to assess airway responsiveness (Buxco), each mouse was placed into a chamber and box pressure/time waveform was analyzed to yield the indicator of airflow obstruction, enhanced pause (Penh). PBS or methacholine (100 mg/ml) was given by aerosol through an inlet of the chamber for 4.5 min. Readings were initiated at 3 min and continued for 12 min. Peak and one min average Penh values were determined. Serum total IgE levels were determined by ELISA (Crystal Chem, Chicago, Ill.). In situ hybridization of murine ALX was performed using an anti-sense oligonucleotide probe (534 bp in length) corresponding to nucleic acids +581-+1115 (GenBank Accession No. NM008042) with the assistance of the Dana-Farber/Harvard Cancer Center Pathology Core Facility (under the direction of Dr. Massimo Loda).
# Allergen-initiated respiratory inflammation. Measurement of inflammatory mediators was determined in cell-free BAL fluid (2000 g, 10 min) by sensitive and specific ELISA's, in tandem, for interleukin-5 (IL-5), IL-13, eotaxin, tumor necrosis factor (TNFα) (R&D Systems, Minneapolis, Minn.), LTB4, cysteinyl LT, PGE2 (Cayman Chemical Co., Ann Arbor, Mich.), and LXA4 (Neogen, Lexington, Ky.). Cells were resuspended in HBSS, enumerated by hemocytometer, and concentrated onto microscope slides by cytocentrifuge (STATspin) (265 g). Cells were stained with a Wright-Giemsa stain (Sigma Chemical Co.) to determine leukocyte differentials (after counting ≧200 cells).
smiles,measurement,setting,value
"COC(=O)CCC[C@H](O)[C@H](O)/C=C/C=C/C=C\C=C\[C@H](O)COc1ccc(F)cc1 [LXa, 15-epi,16-para-fluoro-phenoxy-LXA4-methyl ester]",lymphocyte reduction compared with Montelukast,OVA sensitized FVB mice,statistically more effective than Montelukast in terms of lymphocyte reduction
same,neutrophil accumulation and exudate formation,[1],blocks neutrophil accumulation and exudate formation
same,CysLT's in BAL fluid,[2],decreased
same,IL-5 in BAL fluid,[2],decreased
same,IL-12 in BAL fluid,[2],not similarly reduced; also recorded: did not significantly alter IL-12 levels
same,IL-13 in BAL fluid,[2],decreased
same,PGE2 in BAL fluid,[2],decreased
same,TNF in BAL fluid,[2],not similarly reduced
same,eotaxin in BAL fluid,[2],decreased
